The values that follow come from article PMC2735258 (Journal of medicinal chemistry, 2009).

As a reminder, the IC50 is the concentration needed to halve the response being measured.

Values joined by “and” are separate entries in the source; they are usually repeats but may differ in a detail not shown here. Equal values may be shown once. Read-outs that look alike come from different tables or passages of the source. Square brackets hold non-standard residues; d marks the D form. Ends that are not written are not given here. * marks the point of attachment. pY = N[C@@H](Cc1ccc(OP(=O)(O)O)cc1)C(=O)O; pCinn = not defined here; NHBn = c1ccc(CN*)cc1

Experiment [1] addresses T1, Stat3 (Homo sapiens, UniProt P40763). Put plainly: Stat3 SH2 domain affinity, fluorescence polarization. It counts as binding. Conditions: for fold weaker / loss in affinity: relative to compound 28; for fold loss in affinity: relative to compound 21. A general note: In fluorescence polarisation assays a small probe gives low polarisation when free and higher when bound to something large.

Experiment [2] deals with T1, Stat3. The conditions noted are these: cited from earlier work.
[3] abbreviates: lead phosphopeptides, ref Coleman et al.[16].

T1 sequence (P40763 whole entry, species assumed, the tested form may be a part): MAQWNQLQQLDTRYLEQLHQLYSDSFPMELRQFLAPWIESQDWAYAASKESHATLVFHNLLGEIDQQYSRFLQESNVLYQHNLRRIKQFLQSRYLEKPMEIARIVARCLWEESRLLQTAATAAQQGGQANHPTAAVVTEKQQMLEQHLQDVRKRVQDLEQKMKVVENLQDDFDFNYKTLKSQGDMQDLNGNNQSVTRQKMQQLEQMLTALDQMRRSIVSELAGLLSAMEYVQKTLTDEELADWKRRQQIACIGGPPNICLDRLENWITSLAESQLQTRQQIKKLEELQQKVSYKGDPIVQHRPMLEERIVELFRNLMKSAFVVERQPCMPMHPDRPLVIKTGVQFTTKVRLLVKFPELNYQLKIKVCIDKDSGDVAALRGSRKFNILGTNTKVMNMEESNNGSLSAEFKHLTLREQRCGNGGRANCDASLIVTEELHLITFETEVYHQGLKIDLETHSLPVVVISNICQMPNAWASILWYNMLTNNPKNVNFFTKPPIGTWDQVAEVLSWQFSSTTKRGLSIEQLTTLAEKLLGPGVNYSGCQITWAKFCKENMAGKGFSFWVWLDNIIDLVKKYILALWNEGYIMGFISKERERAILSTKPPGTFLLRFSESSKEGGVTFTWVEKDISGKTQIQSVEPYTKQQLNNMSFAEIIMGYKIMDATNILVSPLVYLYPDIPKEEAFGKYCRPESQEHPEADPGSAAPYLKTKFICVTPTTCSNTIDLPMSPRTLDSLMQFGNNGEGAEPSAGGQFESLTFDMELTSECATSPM

As for `NC(=O)[C@@H]1Cc2cccc3c2N1C(=O)[C@@H](NC(=O)/C=C/c1ccc(OP(=O)(O)O)cc1)CC3` [Compound 31, pCinn-Haic-NH2], at Stat3 [1] (relative to compound 24), the fold weaker turned out to be 42 fold. Also, at Stat3 [1], the “fold weaker / loss in affinity” value turned out to be 150 fold.

As for “Ac-Tyr(PO3H2)-Leu-Pro-Gln-Thr-NH2 (Ac-[pY]LPQT-NH2; SMILES CC(=O)N[C@@H](Cc1ccc(OP(=O)(O)O)cc1)C(=O)N[C@@H](CC(C)C)C(=O)N1CCC[C@H]1C(=O)N[C@@H](CCC(N)=O)C(=O)N[C@H](C(N)=O)[C@@H](C)O) [Compound 2]”, the IC50 with Stat3 [2] (setting [3]) was 740 nM and 739 nM.

For “pCinn-Leu-Pro-Gln-NHBn ([pCinn]LPQ-NHBn; reading uncertain; also: printed as pCinn-Leu-Pro-Gln-NHBn) [Compound 17]”, in the experiment with Stat3 [2] (ref [69]), the IC50 was 138 ± 8 nM.

With Ac-[pY]LPQ-NH2 [Compound 3], the IC50 at Stat3 [2] (setting [3]) is 856 ± 41 nM.

With `C[C@H](NC(=O)[C@@H]1Cc2cccc3c2N1C(=O)[C@@H](NC(=O)/C=C/c1ccc(OP(=O)(O)O)cc1)CC3)C(N)=O` [Compound 32, pCinn-Haic-Ala-NH2], on Stat3 [1], the “activity / affinity for Stat3 in words” value was “micromolar range”.

“7: XXX-Leu-Pro-Gln-Thr-NH2 with XXX = Ac-pTic; drawing shows XXX only [Compound 7]” displayed an IC50 with Stat3 [1] (fluorescence polarization) above 100000 nM.

As to `NC(=O)CC[C@H](NC(=O)[C@@H]1Cc2cccc3c2N1C(=O)[C@@H](NC(=O)/C=C/c1ccc(OP(=O)(O)O)cc1)CC3)C(=O)O` [Compound 26, pCinn-Haic-Gln-OH], the “fold loss in affinity” value at Stat3 [1] is on record as 2 fold.

`C[S+]([O-])CC[C@H](NC(=O)[C@@H]1Cc2cccc3c2N1C(=O)[C@@H](NC(=O)/C=C/c1ccc(OP(=O)(O)O)cc1)CC3)C(N)=O` (stereo partly shown) [Compound 34, pCinn-Haic-Met(O)-NH2]: on Stat3 [1], the “fold weaker / loss in affinity” value was around 10 fold.

As to `CS(=O)(=O)CC[C@H](NC(=O)[C@@H]1Cc2cccc3c2N1C(=O)[C@@H](NC(=O)/C=C/c1ccc(OP(=O)(O)O)cc1)CC3)C(N)=O` [Compound 35, pCinn-Haic-Met(O2)-NH2], the “fold weaker / loss in affinity” value at Stat3 [1] is on record as around 10 fold.

In the case of “Ac-Tyr(PO3H2)-Leu-Pro-Gln-NHBn (Ac-[pY]LPQ-NHBn; SMILES CC(=O)N[C@@H](Cc1ccc(OP(=O)(O)O)cc1)C(=O)N[C@@H](CC(C)C)C(=O)N1CCC[C@H]1C(=O)N[C@@H](CCC(N)=O)C(=O)NCc1ccccc1) [Compound 4]”, the IC50 with Stat3 [2] (setting [3]) was 409 ± 15 nM.

Regarding `NC(=O)CC[C@H](NC(=O)[C@@H]1CC[C@@H]2CC[C@H](NC(=O)/C=C/c3ccc(OP(=O)(O)O)cc3)C(=O)N21)C(=O)NCc1ccccc1` [Compound 18, pCinn-(3S,6S,9S)-ABN-Gln-NHBn], the fold lower affinity at Stat3 [1] (relative to Leu-Pro analogue 17) came to 4 fold.

For `O=C(O)CCCNC(=O)[C@@H]1Cc2cccc3c2N1C(=O)[C@@H](NC(=O)/C=C/c1ccc(OP(=O)(O)O)cc1)CC3` [Compound 24, pCinn-Haic-Gaba], the “fold loss in affinity” value at Stat3 [1] amounted to 5 fold.
